Laboratory results published in US7179806B2, “Δ1-pyrrolines used as pesticides” (Bayer Cropscience AG, priority 2000, dated 2007).

Assay: log P determination by HPLC (reversed-phase C18, EEC Directive 79/831 Annex V.A8)
Assay type: physicochemical
Details: reversed-phase C18 HPLC column, pH 2.3, pH 2.3, 0.1% aqueous phosphoric acid/acetonitrile gradient, 43° C
Text: Mobile phases for determination in the acidic range: 0.1% aqueous phosphoric acid, acetonitrile; linear gradient from 10% acetonitrile to 90% acetonitrile.

Row | chromatographic logP | SMILES
1 | 2.21 | CCOc1ncc(-c2ccc(C3CCC(c4c(F)cccc4F)=N3)cc2)cn1 (stereo not shown) [Example 102]
2 | 5.82 | CCC1CC(CC)CN(c2ncc(-c3ccc(C4CCC(c5c(F)cccc5F)=N4)cc3)cn2)C1 (stereo not shown) [Example 103]
3 | 3 | CC1CN(c2ncc(-c3ccc(C4CCC(c5c(F)cccc5F)=N4)cc3)cn2)CC(C)O1 (stereo not shown) [Example 104]
4 | 3.41 | Fc1cccc(F)c1C1=NC(c2ccc(-c3cnc(N4CCCCCC4)nc3)cc2)CC1 (stereo not shown) [Example 105]
5 | 2.25 | O=C1CCCCCN1c1ccc(-c2ccc(C3CCC(c4c(F)cccc4F)=N3)cc2)cn1 (stereo not shown) [Example 106]
6 | 2.48 | COCCN(CCOC)c1ncc(-c2ccc(C3CCC(c4c(F)cccc4F)=N3)cc2)cn1 (stereo not shown) [Example 107]
7 | 3.74 | C=CCN(CC=C)c1ncc(-c2ccc(C3CCC(c4c(F)cccc4F)=N3)cc2)cn1 (stereo not shown) [Example 108]
8 | 1.65 | Fc1cccc(F)c1C1=NC(c2ccc(-c3ccc(N4CCCCCC4)nc3)cc2)CC1 (stereo not shown) [Example 109]
9 | 3.07 | Fc1cccc(F)c1C1=NC(c2ccc(-c3ccc(Br)cn3)cc2)CC1 (stereo not shown) [Example 110]
10 | 1.49 | Fc1cccc(F)c1C1=NC(c2ccc(-c3ccc(N4CCCCC4)nc3)cc2)CC1 (stereo not shown) [Example 111]
11 | 1.65 | CCCC(C)N1CCN(c2ncc(-c3ccc(C4CCC(c5c(F)cccc5F)=N4)cc3)cn2)CC1 (stereo not shown) [Example 112]
12 | 1.3 | CCC(C)N1CCN(c2ccc(-c3ccc(C4CCC(c5c(F)cccc5F)=N4)cc3)cn2)CC1 (stereo not shown) [Example 113]
13 | 1.28 | Fc1cccc(F)c1C1=NC(c2ccc(-c3ccc(-n4ccnc4)nc3)cc2)CC1 (stereo not shown) [Example 114]
14 | 3.88 | Cc1ccc(N2CCN(c3ncc(-c4ccc(C5CCC(c6c(F)cccc6F)=N5)cc4)cn3)CC2)cc1C (stereo not shown) [Example 116]
15 | 2.7 | Fc1cccc(F)c1C1=NC(c2ccc(-c3cnc(N4CCN(c5ncccn5)CC4)nc3)cc2)CC1 (stereo not shown) [Example 117]
16 | 1.55 | Fc1cccc(F)c1C1=NC(c2ccc(-c3cnc(-n4cncn4)nc3)cc2)CC1 (stereo not shown) [Example 118]
17 | 5.47 | CC(C)(C)C1CCN(c2ncc(-c3ccc(C4CCC(c5c(F)cccc5F)=N4)cc3)cn2)CC1 (stereo not shown) [Example 119]
18 | 4.38 | CC1(C)CCN(c2ncc(-c3ccc(C4CCC(c5c(F)cccc5F)=N4)cc3)cn2)CC1 (stereo not shown) [Example 120]
19 | 4.58 | CCC1CCN(c2ncc(-c3ccc(C4CCC(c5c(F)cccc5F)=N4)cc3)cn2)CC1 (stereo not shown) [Example 121]
20 | 3.84 | Fc1cccc(F)c1C1=NC(c2ccc(-c3cnc(N4CCC(C(F)(F)F)CC4)nc3)cc2)CC1 (stereo not shown) [Example 122]
21 | 2.12 | Fc1cccc(F)c1C1=NC(c2ccc(-c3cnc(N4CCN(CC5CCCCC5)CC4)nc3)cc2)CC1 (stereo not shown) [Example 123]
22 | 1.25 | Fc1cccc(F)c1C1=NC(c2ccc(-c3cnc(-n4ccnc4)nc3)cc2)CC1 (stereo not shown) [Example 124]
23 | 1.47 | CCOCCN1CCN(c2ncc(-c3ccc(C4CCC(c5c(F)cccc5F)=N4)cc3)cn2)CC1 (stereo not shown) [Example 125]
24 | 1.38 | COCCCN1CCN(c2ncc(-c3ccc(C4CCC(c5c(F)cccc5F)=N4)cc3)cn2)CC1 (stereo not shown) [Example 126]
25 | 3.13 | Fc1cccc(F)c1C1=NC(c2ccc(-c3ccc(OC(F)F)nc3)cc2)CC1 (stereo not shown) [Example 127]
26 | 6.7 | Fc1cccc(F)c1C1=NC(c2ccc(-c3ccc(N4CCN(CC5CCCCC5)CC4)nc3)cc2)CC1 (stereo not shown) [Example 128]

Row | chromatographic logP | SMILES
27 | 2.29 | N#Cc1ccc(N2CCN(c3ccc(-c4ccc(C5CCC(c6c(F)cccc6F)=N5)cc4)cn3)CC2)cc1 (stereo not shown) [Example 129]
28 | 1.98 | Fc1cccc(F)c1C1=NC(c2ccc(-c3cnc(-n4cccn4)nc3)cc2)CC1 (stereo not shown) [Example 130]
29 | 1.69 | N#CCCN1CCN(c2ncc(-c3ccc(C4CCC(c5c(F)cccc5F)=N4)cc3)cn2)CC1 (stereo not shown) [Example 131]
30 | 3 | CN(C)CCN1CCN(c2ncc(-c3ccc(C4CCC(c5c(F)cccc5F)=N4)cc3)cn2)CC1 (stereo not shown) [Example 132]
31 | 2.3 | N#Cc1ccccc1N1CCN(c2ccc(-c3ccc(C4CCC(c5c(F)cccc5F)=N4)cc3)cn2)CC1 (stereo not shown) [Example 133]
32 | 5.78 | Cc1cccc(N2CCN(c3ncc(-c4ccc(C5CCC(c6c(F)cccc6F)=N5)cc4)cn3)CC2)c1C (stereo not shown) [Example 134]
33 | 2.13 | CCC(CC)N1CCN(c2ncc(-c3ccc(C4CCC(c5c(F)cccc5F)=N4)cc3)cn2)CC1 (stereo not shown) [Example 135]
34 | 4.83 | Fc1cccc(F)c1C1=NC(c2ccc(-c3cnc(N4CCN(c5cccc(Cl)c5)CC4)nc3)cc2)CC1 (stereo not shown) [Example 136]
35 | 3.03 | C[C@@H]1CN(c2ncc(-c3ccc(C4CCC(c5c(F)cccc5F)=N4)cc3)cn2)C[C@H](C)O1 (stereo partly shown) [Example 137]
36 | 1.39 | CCC(CC)N1CCN(c2ccc(-c3ccc(C4CCC(c5c(F)cccc5F)=N4)cc3)cn2)CC1 (stereo not shown) [Example 138]
37 | 3.3 | CC(C)(C)c1ccc(CN2CCN(c3ncc(-c4ccc(C5CCC(c6c(F)cccc6F)=N5)cc4)cn3)CC2)cc1 (stereo not shown) [Example 139]
38 | 3.13 | Fc1cccc(F)c1C1=NC(c2ccc(-c3cnc(N4CCSCC4)nc3)cc2)CC1 (stereo not shown) [Example 140]
39 | 2.28 | Cc1ccc(CN2CCN(c3ncc(-c4ccc(C5CCC(c6c(F)cccc6F)=N5)cc4)cn3)CC2)cc1 (stereo not shown) [Example 141]
40 | 2.22 | COc1ccc(CN2CCN(c3ncc(-c4ccc(C5CCC(c6c(F)cccc6F)=N5)cc4)cn3)CC2)cc1 (stereo not shown) [Example 142]
41 | 2.25 | Fc1cccc(F)c1C1=NC(c2ccc(-c3cnc(N4CCN(Cc5ccc(Cl)cc5)CC4)nc3)cc2)CC1 (stereo not shown) [Example 143]
42 | 4.7 | Fc1cccc(F)c1C1=NC(c2ccc(-c3cnc(N4CCN(Cc5ccc(C(F)(F)F)cc5)CC4)nc3)cc2)CC1 (stereo not shown) [Example 144]
43 | 1.78 | Fc1ccc(CN2CCN(c3ncc(-c4ccc(C5CCC(c6c(F)cccc6F)=N5)cc4)cn3)CC2)cc1 (stereo not shown) [Example 145]
44 | 3.78 | N#Cc1ccccc1N1CCN(c2ncc(-c3ccc(C4CCC(c5c(F)cccc5F)=N4)cc3)cn2)CC1 (stereo not shown) [Example 146]
45 | 1.48 | CN1CCN(c2ncc(-c3ccc(C4CCC(c5c(F)cccc5F)=N4)cc3)cn2)CC1 (stereo not shown) [Example 147]
46 | 1.49 | COCCN1CCN(c2ncc(-c3ccc(C4CCC(c5c(F)cccc5F)=N4)cc3)cn2)CC1 (stereo not shown) [Example 148]
47 | 3.95 | Fc1ccc(N2CCN(c3ncc(-c4ccc(C5CCC(c6c(F)cccc6F)=N5)cc4)cn3)CC2)cc1 (stereo not shown) [Example 149]
48 | 3.28 | N#Cc1cccnc1N1CCN(c2ncc(-c3ccc(C4CCC(c5c(F)cccc5F)=N4)cc3)cn2)CC1 (stereo not shown) [Example 150]
49 | 1.92 | Fc1cccc(F)c1C1=NC(c2ccc(-c3cnc(N4CCN(Cc5ccccc5)CC4)nc3)cc2)CC1 (stereo not shown) [Example 152]
50 | 3.1 | CCCCCCNc1ncc(-c2ccc(C3CCC(c4c(F)cccc4F)=N3)cc2)cn1 (stereo not shown) [Example 153]
51 | 2.9 | CCCCCNc1ncc(-c2ccc(C3CCC(c4c(F)cccc4F)=N3)cc2)cn1 (stereo not shown) [Example 154]
52 | 2.02 | CCCCCN1CCN(c2ncc(-c3ccc(C4CCC(c5c(F)cccc5F)=N4)cc3)cn2)CC1 (stereo not shown) [Example 155]
